Data published in patent publication US7642283B2, “Mitochrondrial permeability transition pore affinity labels and modulators” (Hoffmann-La Roche Inc., priority 2003, dated 2010).

Legend:
MPTP [1] = test system: T1, MPTP; experiment: Ca2+-induced swelling in deenergized liver mitochondria; format: biochemical; conditions: n=2; 30 min after addition of 200 μM Ca2+; read-out: EC50 of MPTP inhibition in deenergized mitochondria
T1 construct: other: n=2; 30 min after addition of 200 μM Ca2+

Cyp-D = Cyp-D (Homo sapiens, UniProt P30405); experiment: Cyp-D peptidyl prolyl cis-trans isomerase enzymatic activity; format: biochemical; conditions: at concentrations completely blocking MPTP
MPTP [2] = target: T2, MPTP (Rattus norvegicus, UniProt Q9Z2L0); experiment: Ca2+-retention capacity of rat brain mitochondria (Calcium Green-5N); format: biochemical; conditions: 1 μM compound; 5 μM Ca2+ pulses; mean±SEM of 3; control 530±70
T2 construct: other: n=2; glutamate/malate; other: glutamate/malate; 20 min; mean±SEM; unit not given; other: 300 nM; relieved by 50 μM Ub5
Experimental: FIG. 4: (A) Effect of Spiro[cyclopentane-1,5′-[5H]dibenzo[a,d]cyclohepten]-2-one,10′,11′-dihydro-3-methylene- and CsA on Ca^2+-retention capacity of rat brain mitochondria. The incubation medium contained 0.2 M sucrose, 10 mM Tris-Mops, pH 7.4, 1 mM Pi-Tris, 5 μM EGTA and 5 mM glutamate/2.5 mM malate, buffered to pH 7.4 with Tris, containing 0.01% (w/v) bovine serum albumin and 1 μM Calcium Green-5N. The final volume was 2.5 ml. Trace (a) control, (b) 1 μM CsA, (c) 1 μM Spiro[cyclopentane-1,5′-[5H]dibenzo[a,d]cyclohepten]-2-one,10′,11′-dihydro-3-methylene- and (d) 1 μM CsA plus 1 μM Spiro[cyclopentane-1,5′-[5H]dibenzo[a,d]cyclohepten]-2-one,10′,11′-dihydro-3-methylene-. Each fluorescence spike corresponds to addition of 5 μM Ca^2+. (B) Comparison of Ca^2+-retention capacity in liver (a) and brain mitochondria (b).
Effect of Spiro[cyclopentane-1,5′-[5H]dibenzo[a,d]cyclohepten]-2-one,10′,11′-dihydro-3-methylene- and CsA on Ca^2+-retention capacity of rat brain mitochondria (FIG. 4). Measurement of extramitochondrial Ca^2+ was determined using a Perkin-Elmer LS-50B fluorimeter controlled by the FL WinLab computer program. […] The final volume was 2.5 ml and the cuvette was thermostated at 25° C. Brain mitochondria were then subjected to a train of 5 μM Ca^2+ additions (˜150 nmol mg protein^−1). Extramitochondrial Ca^2+ was monitored at excitation/emission wavelengths of 505-535. […] The Ca^2+-retention capacity in liver (a) and brain mitochondria (b) were also compared (FIG. 4B).
The effect of Spiro[cyclopentane-1,5′-[5H]dibenzo[a,d]cyclohepten]-2-one,10′,11′-dihydro-3-methylene- at inhibiting MPTP was also investigated in mitochondria isolated from rat forebrain. […] Due to the difficulties mentioned above, the effect of Spiro[cyclopentane-1,5′-[5H]dibenzo[a,d]cyclohepten]-2-one,10′,11′-dihydro-3-methylene- on MPTP in brain mitochondria was more accurately investigated by subjecting mitochondria isolated from rat forebrain to a series of Ca^2+ pulses (5 μM, ˜150 nmol mg protein^−1) and by monitoring extramitochondrial Ca^2+ or using fluororescent probes.

MPTP [3] = target: T2, MPTP; experiment: Ca2+-induced depolarisation (membrane potential, Rhodamine-123) of rat brain mitochondria; format: biochemical
Experimental: (B) Ca^2+-induced depolarisation of rat brain mitochondria. The medium used was as in the legend to FIG. 4, except that 0.5 μM Rhodamine-123 was added instead of Calcium Green-5N, and MPTP was induced by addition of 20 μM Ca^2+. Trace a, control (Ca^2+ alone), b, 300 nM Spiro[cyclopentane-1,5′-[5H]dibenzo[a,d]cyclohepten]-2-one,10′,11′-dihydro-3-methylene-, c, 300 nM Spiro[cyclopentane-1,5′-[5H]dibenzo[a,d]cyclohepten]-2-one,10′,11′-dihydro-3-methylene- and 50 μM Ub5.
The effect of Spiro[cyclopentane-1,5′-[5H]dibenzo[a,d]cyclohepten]-2-one,10′,11′-dihydro-3-methylene- at inhibiting MPTP was also investigated in mitochondria isolated from rat forebrain. […] Due to the difficulties mentioned above, the effect of Spiro[cyclopentane-1,5′-[5H]dibenzo[a,d]cyclohepten]-2-one,10′,11′-dihydro-3-methylene- on MPTP in brain mitochondria was more accurately investigated by subjecting mitochondria isolated from rat forebrain to a series of Ca^2+ pulses (5 μM, ˜150 nmol mg protein^−1) and by monitoring extramitochondrial Ca^2+ or using fluororescent probes. […] Virtually identical results were obtained from experiments where Δψm was monitored after a series of Ca^2+ additions (5 μM each). Each Ca^2+ additions caused a reversible decreases in Δψm, until MPTP opening completely collapsed Δψm and no further fluorescence increase could observed after addition of the protonophore FCCP.

VDAC1 = target: T3, VDAC1 (Rattus norvegicus, UniProt Q9Z2L0); experiment: Affinity labeling of rat mitochondria with the tritiated spiro compound, SDS-PAGE and fluorography; format: binding; conditions: rat brain and liver mitochondria; 10 nM radiolabel; increasing concentration
T3 construct: from tissue; host or cells: Percoll-purified rat brain and liver mitochondria
Experimental: FIG. 6: Affinity-labeling of isolated rat brain (A) and liver (B) mitochondria. Mitochondrial preparations were incubated in the presence of 10 nM Spiro[cyclopentane-1,5′-[5H]dibenzo[a,d]cyclohepten]-2-one,10′,11′-t2-10′,11′-dihydro-3-methylene- for 15 min at 25° C. in presence or absence of various concentrations of Spiro[cyclopentane-1,5′-[5H]dibenzo[a,d]cyclohepten]-2-one,10′,11′-dihydro-3-methylene-(unlabeled). Samples were submitted to SDS-PAGE (see Experimental Procedures section for details) and fluorography. The fluorograms of the gels are shown. The molecular mass scale (kDa) is shown in the ordinate.
(§1) FIG. 8: (A) Effect of monobromobimano (MBBM) and phenylarsino oxide (PhAO) on VDAC1 labeling by Spiro[cyclopentane-1,5′-[5H]dibenzo[a,d]cyclohepten]-2-one,10′,11′-t2-10′,11′-dihydro-3-methylene- in rat brain mitochondria. Experimental conditions were as in the legend to FIG. 5. (B) Effect of various MPTP inhibitors, atractyloside (ATR) and DIDS on VDAC1 labeling by Spiro[cyclopentane-1,5′-[5H]dibenzo[a,d]cyclohepten]-2-one,10′,11′-t2-10′,11′-dihydro-3-methylene- in rat brain mitochondria. Mitochondria were exposed to DIDS for 5 min before rinsing for removal of the free agent and labeling with Spiro[cyclopentane-1,5′-[5H]dibenzo[a,d]cyclohepten]-2-one,10′,11′-t2-10′,11′-dihydro-3-methylene.
Percoll purified mitochondria (˜30 μg protein per sample) were incubated in the presence of 10 nM Spiro[cyclopentane-1,5′-[5H]dibenzo[a,d]cyclohepten]-2-one,10′,11′-t2-10′,11′-dihydro-3-methylene- in a final volume of 200 μl. After incubation for 15 min at 25° C., samples were centrifuged at 25000×g and the mitochondrial pellet rinsed twice with buffer. Samples were then solubilized in sample buffer containing β-mercaptoethanol (1 h at 37° C.) and subjected to SDS-polyacrylamide gel-electrophoresis (SDS-PAGE) on Tris-glycine Novex pre-cast mini-gels (12% monomer concentration, Invitrogen BV, The Netherlands). After Coomassie Blue staining, gels were processed for fluorography by soaking in Amplify™ (Amersham Biosciences), drying and exposing to X-ray BioMax MS film with BioMax MS intensifying screen (Kodak) at −80° C. for the appropriate time.
as §1, with “Effect” for “FIG. 8: (A) Effect”, “monobromobimano” for “monobromobimano (MBBM)”, “oxide” for “oxide (PhAO)”, “Example 12 (FIG. 8A).” for “the legend to FIG. 5. (B)”, “Spiro[cyclopentane-1,5′-[5H]dibenzo[a,d]cyclohepten]-2-one,10′,11′-t2-10′,11′-dihydro-3-methylene (FIG. 8B).” for “Spiro[cyclopentane-1,5′-[5H]dibenzo[a,d]cyclohepten]-2-one,10′,11′-t2-10′,11′-dihydro-3-methylene.”

T2 sequence (Q9Z2L0 2-283): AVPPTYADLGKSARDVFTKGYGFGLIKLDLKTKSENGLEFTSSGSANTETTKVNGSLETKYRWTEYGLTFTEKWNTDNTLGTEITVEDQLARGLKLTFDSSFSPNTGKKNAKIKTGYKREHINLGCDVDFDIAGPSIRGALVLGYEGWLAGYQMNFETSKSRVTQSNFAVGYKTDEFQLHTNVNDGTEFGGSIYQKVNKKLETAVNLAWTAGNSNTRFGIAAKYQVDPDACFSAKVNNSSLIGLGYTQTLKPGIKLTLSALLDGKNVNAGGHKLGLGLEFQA
T3 sequence (Q9Z2L0 whole entry): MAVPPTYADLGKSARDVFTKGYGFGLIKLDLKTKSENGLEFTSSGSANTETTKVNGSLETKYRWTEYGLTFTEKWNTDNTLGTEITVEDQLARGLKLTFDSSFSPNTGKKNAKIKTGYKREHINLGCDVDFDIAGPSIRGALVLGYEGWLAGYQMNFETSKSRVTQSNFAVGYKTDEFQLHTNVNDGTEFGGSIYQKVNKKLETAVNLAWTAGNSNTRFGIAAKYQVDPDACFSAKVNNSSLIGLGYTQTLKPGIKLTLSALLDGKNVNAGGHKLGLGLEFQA
Sequence of Cyp-D (P30405 30-207): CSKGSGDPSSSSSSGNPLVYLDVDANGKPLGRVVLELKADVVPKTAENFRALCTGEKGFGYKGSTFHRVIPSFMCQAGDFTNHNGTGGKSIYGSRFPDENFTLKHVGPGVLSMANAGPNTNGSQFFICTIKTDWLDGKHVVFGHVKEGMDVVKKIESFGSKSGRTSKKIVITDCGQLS

EC50 (MPTP [1]): 370 nM
Inhibition of Cyp-D peptidyl prolyl cis-trans isomerase activity (Cyp-D): did not inhibit
Ca2+-buffering capacity (MPTP [2]): 1200±120 nmol Ca^2+ mg protein^−1
Inhibition of Ca2+-induced depolarisation (MPTP [3]; 300 nM, 20 μM Ca2+, relieved by 50 μM Ub5): inhibited
Number of Ca2+ additions necessary to induce complete depolarization (MPTP [3]; series of 5 μM Ca2+ additions, membrane potential monitored): increased
Effect of unlabeled compound on labeling of the ~32 kDa band (VDAC1): inhibited
Compound: C=C1CCC2(C1=O)c1ccccc1CCc1ccccc12 [Spiro[cyclopentane-1,5′-[5H]dibenzo[a,d]cyclohepten]-2-one,10′,11′-dihydro-3-methylene-]
